# Assay results: patent US8852657B2, “Chromones as therapeutic agents” (Unigen, Inc., priority 2007, dated 2014)
# “Also recorded” adds a separate entry of the source.
# What was measured:
# Format in all cases: in vivo, mouse
# [1] = system: C57BL/6J mice fed high fat diet; assay: Intraperitoneal glucose tolerance test, high-fat diet induced model (UP394/UP396); conditions: day 18; times 60, 90 and 120 minutes; p<0.05; GW1929 5 mg/kg, UP396 100 mg/kg intraperitoneally
# Excerpt: A high-fat diet induced animal model was developed and used for evaluation of potential therapeutic effects of chromone extracts. The C57BL/6J is a clinically relevant animal model that can be used in studies on metabolic disorders, pathophysiology of impaired glucose tolerance and for development of novel therapeutic agents (Ahren et al. (2004) Diabetes 53 (Supplement 3):S215-S219; Laakso et al. (2004) Diabetes Care 27:2253-2259; Kahn et al. (2004) Diabetes 53:3274-3285; Scheurink et al. (1998) European J Endo. 139:461-467; Yuan et al. (2002) Diabetes 51:1851-1858; Reitman et al. (2005) Endocrinology 145:3258-3264; Vlassara et al. (2005) Diabetes 54:2314-2319; Cawthome et al. (2002) Molecular and Cellular Proteomics 1:509-516). Methodology of model induction was first explained by Surwit et al. in 1988 (Diabetes, 37:1163-1167). […] Blood glucose, cholesterol, and triglyceride were monitored every week for 12 weeks as described previously. […]
# An intraperitoneal glucose tolerance test was conducted using the C57BL/6J mice as described in Example 12 at a dose of 2 g/kg on day 18 of treatment with intraperitoneal administration of GW1929 (5 mg/kg), UP394 (100 mg/kg), UP396 (100 mg/kg) and vehicle. […] Blood glucose levels were measured at time 0, 30, 60, 90, and 120 minutes. […]
# [2] = system: C57BL/6J mice fed high fat diet; assay: Plasma insulin level (ELISA), high-fat diet induced model; conditions: day 14 of treatment after 8 weeks high-fat diet; P<0.05; GW1929 5 mg/kg, UP394 and UP396 100 mg/kg
# Excerpt: A high-fat diet induced animal model was developed and used for evaluation of potential therapeutic effects of chromone extracts. The C57BL/6J is a clinically relevant animal model that can be used in studies on metabolic disorders, pathophysiology of impaired glucose tolerance and for development of novel therapeutic agents (Ahren et al. (2004) Diabetes 53 (Supplement 3):S215-S219; Laakso et al. (2004) Diabetes Care 27:2253-2259; Kahn et al. (2004) Diabetes 53:3274-3285; Scheurink et al. (1998) European J Endo. 139:461-467; Yuan et al. (2002) Diabetes 51:1851-1858; Reitman et al. (2005) Endocrinology 145:3258-3264; Vlassara et al. (2005) Diabetes 54:2314-2319; Cawthome et al. (2002) Molecular and Cellular Proteomics 1:509-516). Methodology of model induction was first explained by Surwit et al. in 1988 (Diabetes, 37:1163-1167). In brief, impaired glucose tolerance and metabolic disorder like symptoms were inflicted successfully in C57BL/6J mice when fed with high fat diets for 8 weeks. Male C57BL/6J mice were purchased from Jackson Laboratories (Bar Harbor, Me.) at age of 6 weeks. One week after acclimation period, animals were divided into groups (n=5 or 6) and provided with high fat (45% kcal) rodent pellet (Research diets, Inc., New Brunswick, N.J.) and water ad libitum for 12 weeks except at times of glucose and insulin tolerance tests at which feed was withheld for three hours. Animals were maintained in a temperature controlled room (22.2° C.) on a 12 hour light-dark cycle. Blood glucose, cholesterol, and triglyceride were monitored every week for 12 weeks as described previously. Body weight measurement was taken once a week for 12 weeks.
# Once induction of the metabolic disorders was confirmed by weekly monitoring of selected parameters (glucose, triglyceride and cholesterol) i.e. on the 8th week, daily intraperitoneal treatment was initiated and maintained for 4 weeks. […]
# The plasma insulin levels were measured with an ELISA kit for insulin (Crystal Chem—Chicago, Ill.). […]
# [3] = Feed consumption, UP780 dose-range study; conditions: GW1929 5 mg/kg, Qmatrix 400 mg/kg, UP780 100, 200 and 400 mg/kg
# Protocol: Once an induction of the disease on animals after 8 weeks of high fat diets was confirmed by monitoring of selected parameters, daily oral treatment was initiated. On each day, the test articles and the positive control GW1929 (Tocris Bioscience, Ellisville, Mo., Batch #2A/58705) were dissolved in 0.5% methylcellulose (Sigma, St. Louise Mo., Lot#116H0857) and delivered at an oral dose of 100, 200 and 400 mg/kg of UP780 (Lot # L1806QMAW-01); 400 mg/kg of Qmatrix® Aloe vera gel powder (QM400, Lot# G6319103-L3) as well as 5 mg/kg of GW1929. As GW1929 was not completely solublized in methylcellulose, it was first dissolved in DMSO (Sigma, St. Louis, Mo., Batch#064K0067). The final concentration of test compounds, including the vehicle, was then adjusted to contain 5% DMSO before drug administration. The carrier vehicle treated animals received 0.5% methylcellulose only. No detectable sign of irritation was observed after each drug or vehicle administration.
# As described on Example 12, male C57BL/6J mice were purchased from Jackson Laboratories (Bar Harbor, Me.) at 6 weeks of age. […]
# Three or four male C57BL/6J mice were housed in a mouse cage that had sections for feed and water. Feed intake was determined daily by measuring the difference between previously weighed high fat pellets value and what was left on the given day. […]
smiles,measurement,setting,value
"CN(CCOc1ccc(C[C@H](Nc2ccccc2C(=O)c2ccccc2)C(=O)O)cc1)c1ccccn1 [GW1929, N-(2-Benzoylphenyl)-O-[2-(methyl-2-pyridinylamino)ethyl]-L-tyrosine]",glucose utilization in intraperitoneal glucose tolerance test compared to vehicle,[1],Significant glucose utilization
same,plasma insulin levels compared to vehicle,[2],decreased the insulin level significantly; also recorded: Significant decreases in plasma insulin levels
same,feed consumption difference between groups,[3],no significant body weight gain or feed consumption differences
